In PMC9187613 (Bioorganic chemistry, 2022):
“Also recorded” adds a separate entry of the source. Read-outs that look alike come from different tables or passages of the source.

Assays:
[1] = tested on: Zika virus (ATCC strain MR 766); experiment: ZIKV replication in Vero cells, virus titers by plaque assay; conditions: for concentration at which replication was blocked completely: 48 h; for EC50: read-out: Antiviral EC50, MOI 1, 48 h, plaque assay
Vero cells = experiment: Cytotoxicity assay; conditions: for CC50: 48 h, LDH release
ZIKV NS5 RdRp = ZIKV NS5 RdRp (Zika virus, UniProt A0A024B7W1); experiment: NS5 RNA-dependent RNA-polymerase activity assay; format: biochemical; conditions: for inhibition of the RdRp (in words): activity assays
ZIKV NS2B-NS3 protease = ZIKV NS2B-NS3 protease (Zika virus, UniProt A0A024B7W1); experiment: NS2B-NS3 protease activity assay; format: biochemical; conditions: for inhibition of protease activity: single 200 μM concentration, 80% threshold
[2] = tested on: papain-like protease (PL^pro); conditions: cited from earlier work
DENV2 NS2B-NS3 protease = conditions: cited from earlier work
[3] = read-out: NS3pro IC50, 4 nM enzyme, 30 μM Bz-nKRR-AMC, 37 °C

ZIKV NS5 RdRp, sequence (A0A024B7W1 2826-3423): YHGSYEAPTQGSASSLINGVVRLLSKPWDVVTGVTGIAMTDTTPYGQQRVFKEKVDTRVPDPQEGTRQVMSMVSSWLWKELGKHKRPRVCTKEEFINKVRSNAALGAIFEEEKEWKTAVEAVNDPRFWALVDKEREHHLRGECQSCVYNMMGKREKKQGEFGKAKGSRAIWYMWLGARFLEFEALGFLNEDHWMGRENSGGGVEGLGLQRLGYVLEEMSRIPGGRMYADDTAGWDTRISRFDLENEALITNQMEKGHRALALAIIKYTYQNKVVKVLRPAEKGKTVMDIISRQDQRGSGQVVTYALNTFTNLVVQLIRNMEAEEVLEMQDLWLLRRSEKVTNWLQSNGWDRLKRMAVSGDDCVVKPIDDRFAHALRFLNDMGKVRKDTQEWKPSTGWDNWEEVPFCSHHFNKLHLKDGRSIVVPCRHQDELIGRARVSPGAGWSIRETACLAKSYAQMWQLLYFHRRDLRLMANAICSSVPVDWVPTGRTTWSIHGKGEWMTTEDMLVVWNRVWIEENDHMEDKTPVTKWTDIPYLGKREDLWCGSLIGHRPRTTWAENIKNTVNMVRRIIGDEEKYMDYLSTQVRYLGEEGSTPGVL
ZIKV NS2B-NS3 protease, sequence (A0A024B7W1 1425-1464): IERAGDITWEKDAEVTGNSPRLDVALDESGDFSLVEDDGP
ZIKV NS2B-NS3 protease, sequence (A0A024B7W1 1503-1680): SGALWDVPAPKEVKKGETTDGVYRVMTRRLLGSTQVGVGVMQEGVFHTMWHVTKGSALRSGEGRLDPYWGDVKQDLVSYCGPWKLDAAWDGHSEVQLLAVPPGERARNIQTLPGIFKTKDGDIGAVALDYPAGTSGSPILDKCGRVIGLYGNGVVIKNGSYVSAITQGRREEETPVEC

SMILES | concentration at which replication was blocked completely [1] [µM] | EC50 [1] [µM] | CC50 (Vero cells) [µM] | inhibition of the RdRp (in words) (ZIKV NS5 RdRp) | IC50 (ZIKV NS2B-NS3 protease; [3]) [µM] | inhibition of protease activity (ZIKV NS2B-NS3 protease) [%] | mode of DENV2 NS2B-NS3 protease inhibition (DENV2 NS2B-NS3 protease) | further results
COc1ccc(C(=O)/C=C/c2ccc(O)cc2)c(O)c1CC=C(C)C [4-HD, 4-hydroxyderricin] | 45 | 6.6 | 103 ± 14 | XA, but not 4HD or XA-E, inhibited | 47 ± 10 | > 80 | – | –
CC(C)=CCC/C(C)=C/Cc1c(O)ccc(C(=O)/C=C/c2ccc(O)cc2)c1O [XA, Xanthoangelol] | – | – | – | – | – | – | – | anti-ZIKV activity (in words) ([1]; concentrations exceeding 50 μM): relatively weak anti-ZIKV activity; also recorded: only weak inhibition of ZIKV growth; cytotoxic effects (in words) (Vero cells): did not display cytotoxic; IC50 (ZIKV NS5 RdRp): 6.9 ± 0.9 µM; inhibition of polymerase activity (ZIKV NS5 RdRp; 20 μM endpoint assay): 85%; IC50 (ZIKV NS2B-NS3 protease): 50 ± 5 µM; inhibition at 200 µM (ZIKV NS2B-NS3 protease; read-out: inhibition of protease activity): > 80%
C=C(C)C(Cc1c(OC)ccc(C(=O)/C=C/c2ccc(O)cc2)c1O)OO (centres unmarked) [XA-E, Xanthoangelol E] | 75 | 22 | 111 ± 10 | XA, but not 4HD or XA-E, inhibited | 18 ± 5 | > 80 | – | mode of protease inhibition (ZIKV NS2B-NS3 protease; Michaelis-Menten and Lineweaver-Burk, consistent Km, decreasing Vmax): noncompetitive mode of inhibition; mode of SARS-CoV PL^pro inhibition [2]: non-competitive mode; IC50 ([2]; read-out: SARS-CoV PL^pro IC50): 1.2 µM
CC(C)=CC[C@@H]1C(C)=CC[C@@H](c2ccccc2)[C@@H]1C(=O)c1c(O)cc(O)cc1O [4-hydroxypanduratin A] | – | – | – | – | – | – | competitive inhibitory activity | –
COc1cc(O)c(C(=O)[C@@H]2[C@H](CC=C(C)C)C(C)=CC[C@H]2c2ccccc2)c(O)c1 [panduratin A] | – | – | – | – | – | – | competitive inhibitory activity | –
